Measurements as given in US9045491B2, “Thienyl [3,2-D] pyrimidin-4-one compounds, preparation method, pharmaceutical compositions and use thereof” (SHANGHAI INSTITUTE OF MATERIA MEDICA, CHINESE ACADEMY OF …, priority 2011, dated 2015).
pIC50: −log10 of the molar value.

Tests used:
[1] = molecular target: T1, DPP IV (Mus musculus, UniProt P28843); assay: DPP IV inhibitory activity in vivo: DPP IV activity in plasma of ICR mouse after single oral dose; details: oral 3 mg/kg, compared with Alogliptin and Vildagliptin (LAF237), FIG. 1-6
T1 construct: from tissue; host or cells: plasma of ICR mouse
Method: Animals: ICR mouse (8-10 weeks old; sex: male; 25 g-30 g of body weight, purchased from Shanghai SLAC Laboratory Animal Center).
Meanwhile the solvent group was used as blank control. The blood was taken from orbital venous plexus of the mouse before administration, and 30, 60, 2 h, 4 h, 6 h, 8 h and […] after administration, respectively and loaded into Eppendorf tube (Qizhong Industrial (Shanghai) co., Ltd.) treated by anticoagulant. The plasma was obtained by centrifugation and DPP IV activity was determined.

[2] = molecular target: dipeptidyl peptidase 7 (DPP 7) (Homo sapiens, UniProt Q9UHL4); assay: DPP 7 activity screening; assay type: biochemical; details: N.I. = No Inhibition
Method in brief: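 Sample dissolved in DMSO, final DMSO kept at a level not affecting activity; tested at a single concentration from preliminary screening (e.g. 20 μg/mL). Dose-response data fitted to sigmoidal variable-slope model with bottom and top fixed at 0 and 100.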

[3] = molecular target: T2, Human DPP 9 (Homo sapiens, UniProt Q86TI2); assay: DPP 9 activity screening (Ala-Pro-AMC fluorescence); assay type: biochemical; details: N.I. = No Inhibition
T2 construct: made in house; host or cells: insect cells, baculovirus Bac-to-Bac
Method in brief: (§1)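 Insect-cell baculovirus-expressed human enzymes hydrolyse Ala-Pro-AMC; AMC release monitored kinetically as fluorescence rate (ex 355/em 460 nm). Primary screen at a single concentration (e.g. 20 μg/mL); dose–response fitted to variable-slope sigmoid with bottom/top fixed at 0 and 100.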

[4] = molecular target: T3, human DPP 8 (Homo sapiens, UniProt Q6V1X1); assay: DPP 8 activity screening (Ala-Pro-AMC fluorescence); assay type: biochemical; details: N.I. = No Inhibition
T3 construct: made in house; host or cells: insect cells, baculovirus Bac-to-Bac
Method in brief: as §1

[5] = molecular target: T4, human DPP IV (Homo sapiens, UniProt P27487); assay: DPP IV activity screening (Ala-Pro-AMC fluorescence); assay type: biochemical
T4 construct: extracellular fragment of protease DPP IV (aa29-766); made in house; host or cells: baculovirus expression system Bac-to-Bac
Method in brief: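 DPP IV activity is taken as the linear rate of fluorescence change at 460 nm. Samples are dissolved in DMSO and screened at a single concentration (e.g. 20 μg/mL). Dose-response data are fit to a variable-slope sigmoidal model with bottom and top fixed at 0 and 100.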

[6] = molecular target: T5, FAP (Homo sapiens, UniProt Q12884); assay: FAP inhibition (Table 1); assay type: biochemical; details: N.I. = No Inhibition
T5 sequence (Q12884 1-760): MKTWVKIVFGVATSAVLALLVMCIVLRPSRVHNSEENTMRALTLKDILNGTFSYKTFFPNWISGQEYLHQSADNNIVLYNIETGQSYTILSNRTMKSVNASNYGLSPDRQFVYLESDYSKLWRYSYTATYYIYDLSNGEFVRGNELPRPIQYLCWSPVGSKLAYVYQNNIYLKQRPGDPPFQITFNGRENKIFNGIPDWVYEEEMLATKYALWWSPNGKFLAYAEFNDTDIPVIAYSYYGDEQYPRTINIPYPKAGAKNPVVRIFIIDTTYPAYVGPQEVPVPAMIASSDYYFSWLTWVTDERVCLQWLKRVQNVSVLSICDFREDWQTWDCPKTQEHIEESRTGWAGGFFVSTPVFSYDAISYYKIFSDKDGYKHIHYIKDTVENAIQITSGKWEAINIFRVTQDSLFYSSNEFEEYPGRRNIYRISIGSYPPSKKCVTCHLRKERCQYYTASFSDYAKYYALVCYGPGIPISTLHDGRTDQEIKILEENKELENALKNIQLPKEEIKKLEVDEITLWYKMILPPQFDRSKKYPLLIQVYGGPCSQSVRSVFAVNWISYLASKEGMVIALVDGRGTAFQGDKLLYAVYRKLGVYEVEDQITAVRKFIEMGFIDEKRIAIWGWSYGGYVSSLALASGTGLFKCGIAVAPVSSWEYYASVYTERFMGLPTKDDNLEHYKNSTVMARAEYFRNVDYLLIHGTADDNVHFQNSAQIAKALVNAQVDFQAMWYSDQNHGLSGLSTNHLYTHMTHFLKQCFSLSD

T3 sequence (Q6V1X1 whole entry): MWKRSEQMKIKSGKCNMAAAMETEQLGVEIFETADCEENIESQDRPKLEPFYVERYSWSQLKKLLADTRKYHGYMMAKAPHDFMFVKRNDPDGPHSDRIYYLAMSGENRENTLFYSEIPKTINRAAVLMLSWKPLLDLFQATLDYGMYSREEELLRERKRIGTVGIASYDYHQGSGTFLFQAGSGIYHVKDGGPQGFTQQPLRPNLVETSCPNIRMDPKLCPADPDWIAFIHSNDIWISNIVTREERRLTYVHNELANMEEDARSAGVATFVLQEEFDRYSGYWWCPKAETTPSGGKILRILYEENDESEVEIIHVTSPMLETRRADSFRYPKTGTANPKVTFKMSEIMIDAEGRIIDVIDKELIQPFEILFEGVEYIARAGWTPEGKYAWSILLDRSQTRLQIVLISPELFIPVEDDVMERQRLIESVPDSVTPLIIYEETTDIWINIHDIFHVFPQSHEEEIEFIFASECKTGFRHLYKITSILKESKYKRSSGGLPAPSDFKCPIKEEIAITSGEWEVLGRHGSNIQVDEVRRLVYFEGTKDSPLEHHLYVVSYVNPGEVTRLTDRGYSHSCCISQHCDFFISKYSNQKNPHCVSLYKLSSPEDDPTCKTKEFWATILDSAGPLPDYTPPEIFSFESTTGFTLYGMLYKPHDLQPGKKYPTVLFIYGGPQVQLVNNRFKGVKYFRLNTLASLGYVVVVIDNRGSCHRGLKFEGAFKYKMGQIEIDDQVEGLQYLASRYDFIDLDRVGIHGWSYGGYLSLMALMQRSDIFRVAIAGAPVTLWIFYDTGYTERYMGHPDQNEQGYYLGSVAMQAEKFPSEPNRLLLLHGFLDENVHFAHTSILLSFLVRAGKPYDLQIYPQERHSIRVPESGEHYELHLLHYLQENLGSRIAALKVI
T1 sequence (P28843 37-760 limits assumed): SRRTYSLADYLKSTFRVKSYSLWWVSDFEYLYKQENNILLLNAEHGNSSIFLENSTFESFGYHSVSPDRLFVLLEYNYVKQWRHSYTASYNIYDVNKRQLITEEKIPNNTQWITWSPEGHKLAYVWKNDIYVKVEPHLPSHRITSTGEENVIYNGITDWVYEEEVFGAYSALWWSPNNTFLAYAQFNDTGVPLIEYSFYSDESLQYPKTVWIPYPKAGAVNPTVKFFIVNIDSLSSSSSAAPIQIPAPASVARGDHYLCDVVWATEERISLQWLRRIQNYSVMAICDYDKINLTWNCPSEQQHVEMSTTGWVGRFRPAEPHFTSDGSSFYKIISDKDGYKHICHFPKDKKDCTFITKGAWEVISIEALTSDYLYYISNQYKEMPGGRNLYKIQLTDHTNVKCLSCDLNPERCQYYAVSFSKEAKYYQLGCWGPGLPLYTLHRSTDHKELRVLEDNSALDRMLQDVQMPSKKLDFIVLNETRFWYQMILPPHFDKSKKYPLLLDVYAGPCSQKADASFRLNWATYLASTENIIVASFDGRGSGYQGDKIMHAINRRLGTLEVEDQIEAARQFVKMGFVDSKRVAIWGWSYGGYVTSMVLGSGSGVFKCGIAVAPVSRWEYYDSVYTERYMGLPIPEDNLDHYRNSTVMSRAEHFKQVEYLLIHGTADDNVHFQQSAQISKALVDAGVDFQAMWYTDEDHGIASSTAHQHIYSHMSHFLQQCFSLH
T4 sequence (P27487 29-766): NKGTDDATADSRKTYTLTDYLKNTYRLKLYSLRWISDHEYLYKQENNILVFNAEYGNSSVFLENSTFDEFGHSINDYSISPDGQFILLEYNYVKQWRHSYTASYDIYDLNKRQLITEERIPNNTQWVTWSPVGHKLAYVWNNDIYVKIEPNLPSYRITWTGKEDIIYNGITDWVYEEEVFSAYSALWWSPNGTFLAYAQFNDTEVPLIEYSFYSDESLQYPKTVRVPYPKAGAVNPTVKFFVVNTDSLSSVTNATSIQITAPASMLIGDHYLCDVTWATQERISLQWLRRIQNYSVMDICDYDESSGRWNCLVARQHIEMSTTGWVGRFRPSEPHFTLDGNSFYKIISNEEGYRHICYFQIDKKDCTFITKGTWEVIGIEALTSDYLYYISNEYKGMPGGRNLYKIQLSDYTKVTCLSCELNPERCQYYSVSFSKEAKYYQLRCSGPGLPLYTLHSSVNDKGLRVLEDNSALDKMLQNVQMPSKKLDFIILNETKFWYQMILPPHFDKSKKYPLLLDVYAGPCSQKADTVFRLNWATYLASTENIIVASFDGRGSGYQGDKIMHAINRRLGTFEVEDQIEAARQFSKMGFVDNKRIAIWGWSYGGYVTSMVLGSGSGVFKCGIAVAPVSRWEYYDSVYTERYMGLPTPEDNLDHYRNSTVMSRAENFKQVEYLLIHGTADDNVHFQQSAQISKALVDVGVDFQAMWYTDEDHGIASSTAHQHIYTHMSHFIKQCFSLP
T2 sequence (Q86TI2 whole entry): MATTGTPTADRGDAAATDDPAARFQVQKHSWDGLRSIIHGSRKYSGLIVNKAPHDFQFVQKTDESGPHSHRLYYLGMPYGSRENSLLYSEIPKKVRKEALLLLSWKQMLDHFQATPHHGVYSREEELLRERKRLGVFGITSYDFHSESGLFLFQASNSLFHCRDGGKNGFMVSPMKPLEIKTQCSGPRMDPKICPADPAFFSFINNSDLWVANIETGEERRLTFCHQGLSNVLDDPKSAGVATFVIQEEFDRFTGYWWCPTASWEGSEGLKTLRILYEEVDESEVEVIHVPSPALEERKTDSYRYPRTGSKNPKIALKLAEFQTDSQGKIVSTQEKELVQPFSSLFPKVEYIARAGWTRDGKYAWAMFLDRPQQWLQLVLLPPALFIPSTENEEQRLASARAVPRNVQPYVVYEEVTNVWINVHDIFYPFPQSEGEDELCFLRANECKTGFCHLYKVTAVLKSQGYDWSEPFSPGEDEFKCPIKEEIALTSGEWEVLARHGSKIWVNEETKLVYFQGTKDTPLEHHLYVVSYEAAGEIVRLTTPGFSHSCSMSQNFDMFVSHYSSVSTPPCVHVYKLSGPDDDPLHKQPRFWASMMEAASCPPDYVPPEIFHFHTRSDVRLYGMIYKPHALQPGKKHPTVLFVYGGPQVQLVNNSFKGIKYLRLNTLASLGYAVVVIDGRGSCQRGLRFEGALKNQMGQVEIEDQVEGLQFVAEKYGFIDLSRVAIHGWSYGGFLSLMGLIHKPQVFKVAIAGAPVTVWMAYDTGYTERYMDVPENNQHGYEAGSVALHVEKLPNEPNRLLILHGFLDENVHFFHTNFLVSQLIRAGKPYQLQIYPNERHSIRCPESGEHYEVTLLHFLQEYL

| Compound | DPP 7 IC50 [2] | pIC50 [3] | pIC50 [4] | pIC50 [5] | pIC50 [6] | pIC50 [2] | DPP 9 IC50 [3] | DPP 8 IC50 [4] | FAP IC50 [6] | DPP IV activity of ICR mouse plasma after single dose (given as hypoglycemic ability in vivo) [1] |
| --- | --- | --- | --- | --- | --- | --- | --- | --- | --- | --- |
| N#Cc1ccccc1Cn1c(N2CCC[C@@H](N)C2)nc2cc(C(=O)N3CCCCC3)sc2c1=O [DC291422] |  |  |  |  |  |  |  |  |  | comparable to that of Alogliptin (3 mg), and better than that of Vildagliptin (LAF237, 15 mg) |
| N#Cc1ccccc1Cn1c(N2CCC[C@@H](N)C2)nc2cc(CO)sc2c1=O [DC291408] |  |  |  |  |  |  |  |  |  | comparable to that of Alogliptin (3 mg), and better than that of Vildagliptin (LAF237, 15 mg) |
| CCOC(=O)CNC(=O)c1csc2c(=O)n(Cc3ccccc3C#N)c(N3CCC[C@@H](N)C3)nc12 [DC291010] |  |  |  |  |  |  |  |  |  | comparable to that of Alogliptin (3 mg), and better than that of Vildagliptin (LAF237, 15 mg) |
| N#Cc1ccccc1Cn1c(N2CCC[C@@H](N)C2)nc2cc(C(=O)NCC3CC3)sc2c1=O [Compound 106, (R)-2-(3-aminopiperidin-1-yl)-3-(2-cyanobenzyl)-N-(cyclopropylmethyl)-4-oxo-3,4-dihydrothieno[3,2-d]pyrimidine-6-carboxamide] | N.I. | 3.90 | 4.12 | 7.74 | 3.93 |  |  |  |  |  |
| CN(C)C(=O)c1csc2c(=O)n(Cc3ccccc3C#N)c(N3CCC[C@@H](N)C3)nc12 [Compound 63, (R)-2-(3-aminopiperidin-1-yl)-3-(2-cyanobenzyl)-N,N-dimethyl-4-oxo-3,4-dihydrothieno[3,2-d]pyrimidine-7-carboxamide] | N.I. | 3.72 | 4.32 | 7.56 | 3.77 |  |  |  |  |  |
| CC(C)CNC(=O)c1cc2nc(N3CCC[C@@H](N)C3)n(Cc3ccccc3C#N)c(=O)c2s1 [Compound 116, (R)-2-(3-aminopiperidin-1-yl)-3-(2-cyanobenzyl)-N-isobutyl-4-oxo-3,4-dihydrothieno[3,2-d]pyrimidine-6-carboxamide] | N.I. |  | 4.02 | 7.73 | 3.90 |  | N.I. |  |  |  |
| COC(=O)CNC(=O)c1cc2nc(N3CCC[C@@H](N)C3)n(Cc3ccccc3C#N)c(=O)c2s1 [Compound 99, (R)-methyl 2-(2-(3-aminopiperidin-1-yl)-3-(2-cyanobenzyl)-4-oxo-3,4-dihydrothieno[3,2-d]pyrimidine-6-carboxamido)acetate] | N.I. | 3.75 | 4.18 | 7.61 | 3.75 |  |  |  |  |  |
| COC(=O)c1cc2nc(N3CCC[C@@H](N)C3)n(Cc3ccccc3C#N)c(=O)c2s1 [Compound 38, (R)-methyl 2-(3-aminopiperidin-1-yl)-3-(2-cyanobenzyl)-4-oxo-3,4-dihydrothieno[3,2-d]pyrimidine-6-carboxylate] | N.I. |  |  | 7.94 |  |  | N.I. | N.I. | N.I. |  |
| N#Cc1ccccc1Cn1c(N2CCC[C@@H](N)C2)nc2c(CO)csc2c1=O [Compound 43, (R)-2-((2-(3-aminopiperidin-1-yl)-7-(hydroxymethyl)-4-oxothieno[3,2-d]-pyrimidin-3(4H)-yl)methyl)benzonitrile] | N.I. |  |  | 7.72 |  |  | N.I. | N.I. | N.I. |  |
| CC(C)NC(=O)c1csc2c(=O)n(Cc3ccccc3C#N)c(N3CCC[C@@H](N)C3)nc12 [Compound 72, (R)-2-(3-aminopiperidin-1-yl)-3-(2-cyanobenzyl)-N-isopropyl-4-oxo-3,4-dihydrothieno[3,2-d]pyrimidine-7-carboxamide] | N.I. | 3.83 | 4.52 | 7.82 | 4.40 |  |  |  |  |  |
| CCCCNC(=O)c1cc2nc(N3CCC[C@@H](N)C3)n(Cc3ccccc3C#N)c(=O)c2s1 [Compound 117, (R)-2-(3-aminopiperidin-1-yl)-N-butyl-3-(2-cyanobenzyl)-4-oxo-3,4-dihydrothieno[3,2-d]pyrimidine-6-carboxamide] | N.I. | 4.11 | 4.20 | 7.80 | 3.93 |  |  |  |  |  |
| Cl.N#Cc1ccccc1Cn1c(N2CCC[C@@H](N)C2)nc2cc(C(=O)O)sc2c1=O [Compound 39, (R)-2-(3-aminopiperidin-1-yl)-3-(2-cyanobenzyl)-4-oxo-3,4-dihydrothieno-[3,2-d]pyrimidine-6-carboxylic acid hydrochloride] | N.I. |  |  | 7.55 |  |  | N.I. | N.I. | N.I. |  |

More lines, in order of rising pIC50 [5], values ahead:

| DPP 7 IC50 [2] | pIC50 [3] | pIC50 [4] | pIC50 [5] | pIC50 [6] | pIC50 [2] | DPP 9 IC50 [3] | DPP 8 IC50 [4] | FAP IC50 [6] | Compound | DPP IV activity of ICR mouse plasma after single dose (given as hypoglycemic ability in vivo) [1] |
| --- | --- | --- | --- | --- | --- | --- | --- | --- | --- | --- |
| N.I. |  |  | 7.23 |  |  | N.I. | N.I. | N.I. | N#Cc1ccccc1Cn1c(N2CCC[C@@H](N)C2)nc2cc(CN3CCOCC3)sc2c1=O [Compound 95, (R)-2-((2-(3-aminopiperidin-1-yl)-6-(morpholinomethyl)-4-oxothieno-[3,2-d]pyrimidin-3(4H)-yl)methyl)benzonitrile] |  |
|  | 4.40 | 5.24 | 7.48 | 5.03 | 4.28 |  |  |  | Cc1ccc(CNC(=O)c2csc3c(=O)n(Cc4ccccc4C#N)c(N4CCC[C@@H](N)C4)nc23)cc1 [Compound 64, (R)-2-(3-aminopiperidin-1-yl)-3-(2-cyanobenzyl)-N-(4-methylbenzyl)-4-oxo-3,4-dihydrothieno[3,2-d]-pyrimidine-7-carboxamide] |  |
| N.I. | 3.94 | 4.59 | 7.59 | 4.54 |  |  |  |  | N#Cc1ccccc1Cn1c(N2CCC[C@@H](N)C2)nc2c(C(=O)NC3CCCCC3)csc2c1=O [Compound 80, (R)-2-(3-aminopiperidin-1-yl)-3-(2-cyanobenzyl)-N-cyclohexyl-4-oxo-3,4-dihydrothieno[3,2-d]pyrimidine-7-carboxamide] |  |
| N.I. | 3.80 | 4.16 | 7.62 | 3.67 |  |  |  |  | COCCCNC(=O)c1cc2nc(N3CCC[C@@H](N)C3)n(Cc3ccccc3C#N)c(=O)c2s1 [Compound 112, (R)-2-(3-aminopiperidin-1-yl)-3-(2-cyanobenzyl)-N-(3-methoxypropyl)-4-oxo-3,4-dihydrothieno[3,2-d]-pyrimidine-6-carboxamide] |  |
| N.I. | 3.59 |  | 7.77 | 3.62 |  |  | N.I. |  | CNC(=O)c1cc2nc(N3CCC[C@@H](N)C3)n(Cc3ccccc3C#N)c(=O)c2s1 [Compound 104, (R)-2-(3-aminopiperidin-1-yl)-3-(2-cyanobenzyl)-N-methyl-4-oxo-3,4-dihydrothieno[3,2-d]pyrimidine-6-carboxamide] |  |
| N.I. | 3.96 | 4.43 | 7.88 | 4.24 |  |  |  |  | N#Cc1ccccc1Cn1c(N2CCC[C@@H](N)C2)nc2c(C(=O)NCCO)csc2c1=O [Compound 60, (R)-2-(3-aminopiperidin-1-yl)-3-(2-cyanobenzyl)-N-(2-hydroxyethyl)-4-oxo-3,4-dihydrothieno[3,2-d]-pyrimidine-7-carboxamide] |  |
| N.I. | 4.26 | 4.47 | 7.98 | 4.01 |  |  |  |  | N#Cc1ccccc1Cn1c(N2CCC[C@@H](N)C2)nc2cc(COCc3ccccc3)sc2c1=O [Compound 94, (R)-2-((2-(3-aminopiperidin-1-yl)-6-((benzyloxy)methyl)-4-oxothieno-[3,2-d]pyrimidin-3(4H)-yl)methyl)-benzonitrile] |  |
